The source of these data is patent US20250388604A1, “Compounds and Their Use as PDE4 Activators” (Mironid Limited, priority 2022, published 2025).

The first experiment deals with m-IMCD3 cells. Kind of experiment: Inhibition of PGE2-stimulated in vitro cyst formation in m-IMCD3 cells. Conditions: 3 μM; mean cyst area, 100% for (DMSO + PGE2) and 0% for DMSO control; 6 days of culture. In kind it is cell-based, mouse. On the procedure:
HEK 293 and MDCK cells (Public Health England, Cell Culture Collections) were maintained in Dulbecco's Modified Eagle's Medium (DMEM) supplemented with 10% (v/v) fetal bovine serum (FBS) (Seralab), 2 mM L-glutamine and 100 U/mL penicillin streptomycin cocktail (ThermoFisher); termed complete media. Clonal HEK 293 cell lines were maintained in complete media supplemented with 0.6 mg/ml G418 (Enzo Life Sciences). Mouse inner medullary collecting duct (m-IMCD3) cells [American Type Culture Collection (ATCC)] were maintained in media consisting of DMEM/Hams F-12 50/50 Mix (DMEM F12; Corning) supplemented with penicillin streptomycin cocktail (100 U/mL) and FBS (10% v/v) (DMEM F12-10% FBS).
The mouse Inner Medullary Collecting Duct cell line (m-IMCD3) spontaneously forms cystic spheroids in 3D culture with a Type 1 collagen/Matrigel extracellular matrix. This process can be stimulated with agents which raise intracellular cAMP and is used as an in vitro model for the formation of cystic structures in the kidneys of patients with ADPKD.
Rat Collagen I (Fisher Scientific) is prepared on ice by neutralising with 1M NaOH and diluting with a 2× volume of DMEM/F12+10% FBS. This is mixed 1:1.1 with ice cold Matrigel (Corning) for coating plates (coating mix), and 1:0.93 with Matrigel for cell plating (plating mix).
The assay is conducted in the wells of a 96-well plate culture dish using a total volume of 130 μL of collagen/Matrigel/DMEM F12-10% FBS suspension in growth media for each matrix plug per individual well. Initially, 30 μL of collagen/Matrigel/DMEM F12-10% FBS (coating mix) is added into the well of a 96 well plate and the collagen is set to a gel by incubating at 37° C. for at least 15 minutes. A second layer of 100 μL collagen/Matrigel suspension (plating mix) containing m-IMCD3 cells (2.75×10^6 m-IMCD3 cells per 96-well plate) is layered over the coating mix and the collagen/Matrigel/cell mix again set to a gel by incubating at 37° C. Cell cultures are maintained at 37° C. in an atmosphere of 5% CO2, 95% air.
Between 18 and 24 h after plating, test compound(s) as DMSO stock solutions [0.1% (v/v) final DMSO concentration] and PGE2 (100 nM final concentration) in DMEM F12-10% FBS are added in quadruplicate wells per condition. Media, together with the test compound and PGE2 are replenished after 2 or 3 days. After 6 days of culture z stack images of the wells are captured using the Nikon Eclipse Ti2-E microscope. Nikon General Analysis software is used to measure the following parameters in each well: the mean cyst area, the number of cysts, and the total cyst area.
PDE4 long form activators inhibited in vitro cyst formation in m-IMCD3 cells. Data are shown in Table 4 as mean cyst area (%), compared to 100% for (DMSO+PGE2) and 0% for DMSO control.
Consider `CC(O)(C(=O)N1CCc2nc(N3C4CCC3CNC4)sc2C1)C1CCCC1` (single isomer, unassigned) [Example 255, 1-(2-(3,8-diazabicyclo[3.2.1]octan-8-yl)-6,7-dihydrothiazolo[5,4-c]pyridin-5(4H)-yl)-2-cyclopentyl-2-hydroxypropan-1-one], for which the “% Cyst area after incubation with 3 μM test compound” value is −5%.

The same experiment, now with this note: Mus musculus, mIMCD3, 144 h, 3 μM; mean cyst area, 100% for (DMSO + PGE2) and 0% for DMSO control; 6 days of culture; read-out: % Cyst area after incubation with 3 μM test compound.
As to `O=C(c1ccc(C(F)F)nc1)N1CCc2nc(N3C4CCC3CNC4)sc2C1` [Example 243, (2-(3,8-diazabicyclo[3.2.1]octan-8-yl)-6,7-dihydrothiazolo[5,4-c]pyridin-5(4H)-yl)(6-(difluoromethyl)pyridin-3-yl)methanone], the activity at 3 µM turned out to be 10%.

For `O=C(c1ccccc1C1CC1)N1CCc2nc(N3C4CCC3CNC4)sc2C1` [Example 220, (2-(3,8-diazabicyclo[3.2.1]octan-8-yl)-6,7-dihydrothiazolo[5,4-c]pyridin-5(4H)-yl)(2-cyclopropylphenyl)methanone], the activity at 3 µM was -5%. On the same count and under the same terms, in the case of `Cc1cccc(C(=O)N2CCc3nc(N4C5CCC4CNC5)sc3C2)c1` [Example 195, (2-(3,8-diazabicyclo[3.2.1]octan-8-yl)-6,7-dihydrothiazolo[5,4-c]pyridin-5(4H)-yl)(m-tolyl)methanone] it was 1%; in that of `CN1CC2CCC(C1)N2c1nc2c(s1)CN(C(=O)COc1ccc(F)cc1)CC2` [Example 301, 2-(4-fluorophenoxy)-1-(2-(3-methyl-3,8-diazabicyclo[3.2.1]octan-8-yl)-6,7-dihydrothiazolo[5,4-c]pyridin-5(4H)-yl)ethan-1-one], -6%.

Consider `CCCN1CC2CCC(C1)N2c1nc2c(s1)CN(C(=O)CC1CCCC1)CC2` [Example 292, 2-cyclopentyl-1-(2-(3-propyl-3,8-diazabicyclo[3.2.1]octan-8-yl)-6,7-dihydrothiazolo[5,4-c]pyridin-5(4H)-yl)ethan-1-one], for which the activity at 3 µM was found to be 0%. The same measure, in the same setting: in the case of `COCc1ccccc1C(=O)N1CCc2nc(N3C4CCC3CNC4)sc2C1` [Example 214, (2-(3,8-diazabicyclo[3.2.1]octan-8-yl)-6,7-dihydrothiazolo[5,4-c]pyridin-5(4H)-yl)(2-(methoxymethyl)phenyl)methanone] it was 54%. Regarding `O=C(c1cccc2c1OCO2)N1CCc2nc(N3C4CCC3CNC4)sc2C1` [Example 234, (2-(3,8-diazabicyclo[3.2.1]octan-8-yl)-6,7-dihydrothiazolo[5,4-c]pyridin-5(4H)-yl)(benzo[d][1,3]dioxol-4-yl)methanone], the activity at 3 µM came to 1%. The same measure, in the same setting: in the case of `O=C(CC1CCCC1)N1Cc2sc(N3C4CCC3CNC4)nc2C2(CC2)C1` [Example 265, 1-(2′-(3,8-diazabicyclo[3.2.1]octan-8-yl)-4′H-spiro[cyclopropane-1,7′-thiazolo[5,4-c]pyridin]-5′(6′H)-yl)-2-cyclopentylethan-1-one] it was -3%; in that of `CC(C)Oc1ccccc1C(=O)N1CCc2nc(N3C4CCC3CNC4)sc2C1` [Example 211, (2-(3,8-diazabicyclo[3.2.1]octan-8-yl)-6,7-dihydrothiazolo[5,4-c]pyridin-5(4H)-yl)(2-isopropoxyphenyl)methanone], 40%; in that of `O=C(Cc1ccc(F)nc1)N1CCc2nc(N3C4CCC3CNC4)sc2C1` [Example 165, 1-(2-(3,8-diazabicyclo[3.2.1]octan-8-yl)-6,7-dihydrothiazolo[5,4-c]pyridin-5(4H)-yl)-2-(6-fluoropyridin-3-yl)ethan-1-one], 2%.

The experiment is the same for the next values; noted with them: Mus musculus, mIMCD3, 144 h, 10 μM; mean cyst area, 100% for (DMSO + PGE2) and 0% for DMSO control; 6 days of culture; read-out: % Cyst area after incubation with 10 μM test compound.
`CN1CC2CCC(C1)N2c1nc2c(s1)CN(C(=O)CC1CCC(F)(F)CC1)C2` [Example 84, 2-(4,4-difluorocyclohexyl)-1-(2-(3-methyl-3,8-diazabicyclo[3.2.1]octan-8-yl)-4,6-dihydro-5H-pyrrolo[3,4-d]thiazol-5-yl)ethan-1-one]: the activity at 10 µM was 1%. Consider `COc1cc(F)ccc1CC(=O)N1CCc2nc(N3C4CCC3CNC4)sc2C1` [Example 140, 1-(2-(3,8-diazabicyclo[3.2.1]octan-8-yl)-6,7-dihydrothiazolo[5,4-c]pyridin-5(4H)-yl)-2-(4-fluoro-2-methoxyphenyl)ethan-1-one], for which the activity at 10 µM amounted to 0%. The same measure, in the same setting: the result for `COc1ccccc1CC(=O)N1CCc2nc(N3C4CCC3CNC4)sc2C1` [Example 139, 1-(2-(3,8-diazabicyclo[3.2.1]octan-8-yl)-6,7-dihydrothiazolo[5,4-c]pyridin-5(4H)-yl)-2-(2-methoxyphenyl)ethan-1-one] reads -1%; that for `O=C(CC1CCC(F)(F)C1)N1CCc2nc(N3C4CCC3CNC4)sc2C1` (stereo not shown) [Example 137, 1-(2-(3,8-diazabicyclo[3.2.1]octan-8-yl)-6,7-dihydrothiazolo[5,4-c]pyridin-5(4H)-yl)-2-(3,3-difluorocyclopentyl)ethan-1-one], -4%; that for `Cc1cc(F)ccc1CC(=O)N1CCc2nc(N3C4CCC3CNC4)sc2C1` [Example 156, 1-(2-(3,8-diazabicyclo[3.2.1]octan-8-yl)-6,7-dihydrothiazolo[5,4-c]pyridin-5(4H)-yl)-2-(4-fluoro-2-methylphenyl)ethan-1-one], 0%. Same read-out and setting: in the case of `O=C(CC1CCCC1)N1CCc2nc(N3CCN[C@H](CO)C3)sc2C1` [Example 116, (S)-2-cyclopentyl-1-(2-(3-(hydroxymethyl)piperazin-1-yl)-6,7-dihydrothiazolo[5,4-c]pyridin-5(4H)-yl)ethan-1-one] it was 55%; in that of `O=C(Cc1ccnc(F)c1)N1CCc2nc(N3C4CCC3CNC4)sc2C1` [Example 141, 1-(2-(3,8-diazabicyclo[3.2.1]octan-8-yl)-6,7-dihydrothiazolo[5,4-c]pyridin-5(4H)-yl)-2-(2-fluoropyridin-4-yl)ethan-1-one], -7%. Still for that read-out and setting: the result for `O=C(N1CCCC1)N1CCc2nc(N3C4CCC3CNC4)sc2C1` [Example 60, (2-(3,8-diazabicyclo[3.2.1]octan-8-yl)-6,7-dihydrothiazolo[5,4-c]pyridin-5(4H)-yl)(pyrrolidin-1-yl)methanone] reads 2%. Turning to `CN1CCN(c2nc3c(s2)CN(C(=O)CC2CCC(F)(F)CC2)CC3(C)C)CC1` [Example 104, 2-(4,4-difluorocyclohexyl)-1-(7,7-dimethyl-2-(4-methylpiperazin-1-yl)-6,7-dihydrothiazolo[5,4-c]pyridin-5(4H)-yl)ethan-1-one], the activity at 10 µM turned out to be 0%. Same read-out and setting: the result for `CN1CC2CCC(C1)N2c1nc2c(s1)CN(C(=O)NC1CCC(F)(F)CC1)CC2` [Example 77, N-(4,4-difluorocyclohexyl)-2-(3-methyl-3,8-diazabicyclo[3.2.1]octan-8-yl)-6,7-dihydrothiazolo[5,4-c]pyridine-5(4H)-carboxamide] reads 1%; that for `CC(C)(C)C(=O)N1CCc2nc(N3C4CCC3CNC4)sc2C1` [Example 65, 1-(2-(3,8-diazabicyclo[3.2.1]octan-8-yl)-6,7-dihydrothiazolo[5,4-c]pyridin-5(4H)-yl)-2,2-dimethylpropan-1-one], -2%.

Take `O=C(NC1CCC(F)(F)CC1)N1CCc2nc(N3C4CCC3CNC4)sc2C1` [Example 58, 2-(3,8-diazabicyclo[3.2.1]octan-8-yl)-N-(4,4-difluorocyclohexyl)-6,7-dihydrothiazolo[5,4-c]pyridine-5(4H)-carboxamide]: the activity at 10 µM is -3%. Same read-out and setting: in the case of `O=C(C(F)C1CCCC1)N1CCc2nc(N3C4CCC3CNC4)sc2C1` (stereo not shown) [Example 34, 1-(2-(3,8-diazabicyclo[3.2.1]octan-8-yl)-6,7-dihydrothiazolo[5,4-c]pyridin-5(4H)-yl)-2-cyclopentyl-2-fluoroethan-1-one] it was -2%; in that of `O=S(=O)(CC1CCCC1)N1CCc2nc(N3C4CCC3CNC4)sc2C1` [Example 107, 2-(3,8-diazabicyclo[3.2.1]octan-8-yl)-5-((cyclopentylmethyl)sulfonyl)-4,5,6,7-tetrahydrothiazolo[5,4-c]pyridine], -16%.
